Source: ChEMBL document CHEMBL1909046, “DrugMatrix in vitro pharmacology data”

What was measured:
Calcitonin receptor = biological target: T1, Calcitonin receptor (Homo sapiens, UniProt P30988); assay type: cell membranes, Membrane; settings: t47d; further: in other assays of this panel Not Active means under 50% inhibition at 10 µM
T1 sequence (P30988 whole entry): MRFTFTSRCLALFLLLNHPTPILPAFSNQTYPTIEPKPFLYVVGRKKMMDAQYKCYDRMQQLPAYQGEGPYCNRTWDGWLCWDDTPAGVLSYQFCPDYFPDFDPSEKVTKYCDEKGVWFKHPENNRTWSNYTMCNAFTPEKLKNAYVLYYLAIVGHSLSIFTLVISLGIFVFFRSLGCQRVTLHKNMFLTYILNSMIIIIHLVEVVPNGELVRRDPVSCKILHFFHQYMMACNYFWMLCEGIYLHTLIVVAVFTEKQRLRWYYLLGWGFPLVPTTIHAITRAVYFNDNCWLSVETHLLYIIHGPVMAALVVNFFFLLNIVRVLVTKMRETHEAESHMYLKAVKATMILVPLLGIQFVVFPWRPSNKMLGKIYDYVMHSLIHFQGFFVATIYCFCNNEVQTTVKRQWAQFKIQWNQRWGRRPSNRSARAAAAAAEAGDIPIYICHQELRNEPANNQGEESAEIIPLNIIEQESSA

[1] = biological target: 5-hydroxytryptamine receptor 4 (Cavia porcellus, UniProt O70528); assay type: cell membranes, Dunkin-Hartley, Striatum, Membrane; further: in other assays of this panel Not Active means under 50% inhibition at 10 µM
[2] = biological target: T2, C-X-C chemokine receptor type 2 (Homo sapiens, UniProt P25025); assay type: cell membranes, Membrane; settings: cho-k1; further: in other assays of this panel Not Active means under 50% inhibition at 10 µM
T2 sequence (P25025 whole entry): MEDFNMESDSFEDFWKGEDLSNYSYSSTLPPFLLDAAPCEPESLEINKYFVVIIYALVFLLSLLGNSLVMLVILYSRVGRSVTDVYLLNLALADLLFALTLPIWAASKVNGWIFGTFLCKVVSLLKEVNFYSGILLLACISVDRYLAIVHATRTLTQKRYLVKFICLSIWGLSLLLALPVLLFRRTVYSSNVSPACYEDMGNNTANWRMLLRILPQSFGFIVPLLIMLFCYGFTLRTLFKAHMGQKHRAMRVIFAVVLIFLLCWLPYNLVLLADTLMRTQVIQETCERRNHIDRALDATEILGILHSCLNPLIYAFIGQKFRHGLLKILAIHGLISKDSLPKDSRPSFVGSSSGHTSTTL

[3] = biological target: T3, Muscarinic acetylcholine receptor M2 (Homo sapiens, UniProt P08172); assay type: cell membranes, CHO-K1, Membrane; further: in other assays of this panel Not Active means under 50% inhibition at 10 µM
T3 sequence (P08172 whole entry): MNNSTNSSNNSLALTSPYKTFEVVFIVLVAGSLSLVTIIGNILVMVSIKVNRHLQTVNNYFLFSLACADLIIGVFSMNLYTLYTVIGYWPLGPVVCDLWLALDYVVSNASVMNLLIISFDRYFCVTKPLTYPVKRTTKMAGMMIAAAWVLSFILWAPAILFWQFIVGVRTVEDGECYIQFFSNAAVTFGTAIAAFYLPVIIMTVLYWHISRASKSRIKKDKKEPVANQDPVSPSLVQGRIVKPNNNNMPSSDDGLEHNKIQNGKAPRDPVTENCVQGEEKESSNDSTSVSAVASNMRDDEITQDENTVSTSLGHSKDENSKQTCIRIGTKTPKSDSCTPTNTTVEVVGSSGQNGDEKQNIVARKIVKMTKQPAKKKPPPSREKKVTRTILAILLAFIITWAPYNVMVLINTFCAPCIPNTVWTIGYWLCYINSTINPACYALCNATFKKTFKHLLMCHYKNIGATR

Mu-type opioid receptor = Mu-type opioid receptor (Homo sapiens, UniProt P35372); experiment: DRUGMATRIX: Opiate mu (OP3, MOP) radioligand binding (ligand: [3H] Diprenorphine); assay type: cell membranes, CHO-K1, Membrane; settings: cho-k1; Not Active = under 50% inhibition at 10 µM
Interstitial collagenase = biological target: T4, Interstitial collagenase (Homo sapiens, UniProt P03956); experiment: biochemical; assay type: tissue-based, Rheumatoid synovial fibroblasts
T4 sequence (P03956 whole entry): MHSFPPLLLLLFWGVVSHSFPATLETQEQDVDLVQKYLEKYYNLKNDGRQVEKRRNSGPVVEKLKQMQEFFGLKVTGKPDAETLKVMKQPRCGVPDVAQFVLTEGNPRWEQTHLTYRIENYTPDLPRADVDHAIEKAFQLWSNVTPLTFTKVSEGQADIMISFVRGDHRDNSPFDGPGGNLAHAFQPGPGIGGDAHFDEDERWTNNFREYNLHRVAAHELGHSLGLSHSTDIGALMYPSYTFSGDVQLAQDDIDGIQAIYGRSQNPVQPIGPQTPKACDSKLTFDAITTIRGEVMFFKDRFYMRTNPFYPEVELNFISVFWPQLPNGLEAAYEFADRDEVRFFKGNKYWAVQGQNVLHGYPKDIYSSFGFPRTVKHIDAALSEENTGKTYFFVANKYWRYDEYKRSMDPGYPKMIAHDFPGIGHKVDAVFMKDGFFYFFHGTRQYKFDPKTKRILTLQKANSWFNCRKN

[4] = biological target: Protein kinase C alpha type (Homo sapiens, UniProt P17252); assay type: cell-based; settings: sf9
Estrogen receptor = biological target: T5, Estrogen receptor (Homo sapiens, UniProt P03372); settings: sf9; further: in other assays of this panel Not Active means under 50% inhibition at 10 µM
T5 sequence (P03372 whole entry): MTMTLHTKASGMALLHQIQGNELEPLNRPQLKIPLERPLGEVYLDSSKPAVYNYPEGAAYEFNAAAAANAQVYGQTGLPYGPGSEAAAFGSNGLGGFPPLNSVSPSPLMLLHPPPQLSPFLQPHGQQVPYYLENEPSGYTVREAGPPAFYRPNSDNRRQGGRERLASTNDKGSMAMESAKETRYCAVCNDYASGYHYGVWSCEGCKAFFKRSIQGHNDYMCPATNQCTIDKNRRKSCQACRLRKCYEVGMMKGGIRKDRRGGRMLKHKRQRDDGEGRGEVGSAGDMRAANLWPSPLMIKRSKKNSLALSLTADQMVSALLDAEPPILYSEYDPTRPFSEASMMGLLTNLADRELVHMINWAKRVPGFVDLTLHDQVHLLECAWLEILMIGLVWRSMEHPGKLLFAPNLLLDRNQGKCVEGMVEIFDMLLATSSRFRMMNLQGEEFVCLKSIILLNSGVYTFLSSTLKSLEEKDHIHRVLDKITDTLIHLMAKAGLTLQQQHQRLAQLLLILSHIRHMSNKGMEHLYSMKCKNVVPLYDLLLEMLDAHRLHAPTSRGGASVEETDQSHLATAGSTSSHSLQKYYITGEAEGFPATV

Chain of 5-hydroxytryptamine receptor 4 (O70528 whole entry): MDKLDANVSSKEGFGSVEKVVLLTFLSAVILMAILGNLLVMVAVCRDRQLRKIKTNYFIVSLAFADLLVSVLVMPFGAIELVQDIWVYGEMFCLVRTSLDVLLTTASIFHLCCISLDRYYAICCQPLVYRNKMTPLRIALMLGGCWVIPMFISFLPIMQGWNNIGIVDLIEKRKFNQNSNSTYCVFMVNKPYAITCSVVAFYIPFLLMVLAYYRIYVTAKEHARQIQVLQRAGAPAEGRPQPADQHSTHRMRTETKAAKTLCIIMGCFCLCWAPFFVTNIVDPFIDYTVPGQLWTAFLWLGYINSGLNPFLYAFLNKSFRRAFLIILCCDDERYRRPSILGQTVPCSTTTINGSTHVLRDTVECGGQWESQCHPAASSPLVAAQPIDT
Chain of Mu-type opioid receptor (P35372 whole entry): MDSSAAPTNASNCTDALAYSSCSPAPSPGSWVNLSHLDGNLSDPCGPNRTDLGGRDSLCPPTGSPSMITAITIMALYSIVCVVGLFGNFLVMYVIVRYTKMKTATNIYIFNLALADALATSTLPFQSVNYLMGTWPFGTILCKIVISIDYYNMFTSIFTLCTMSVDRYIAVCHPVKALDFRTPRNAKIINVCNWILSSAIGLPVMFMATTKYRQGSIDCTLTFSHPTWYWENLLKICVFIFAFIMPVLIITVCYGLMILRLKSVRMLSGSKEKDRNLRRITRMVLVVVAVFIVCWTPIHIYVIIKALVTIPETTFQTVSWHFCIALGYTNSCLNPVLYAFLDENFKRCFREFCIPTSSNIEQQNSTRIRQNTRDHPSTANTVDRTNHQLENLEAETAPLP

| Compound | IC50 (Calcitonin receptor) | IC50 [1] | IC50 [2] | IC50 ([3]; cho-k1) | IC50 (Mu-type opioid receptor) | IC50 (Interstitial collagenase) | IC50 [4] | IC50 (Estrogen receptor) | Ki (Calcitonin receptor) | Ki [1] | Ki [2] | Ki ([3]; cho-k1) | Ki (Interstitial collagenase) | Ki [4] | Ki (Estrogen receptor) | IC50 ([3]; read-out: IC50) | Ki ([3]; read-out: Ki) |
| --- | --- | --- | --- | --- | --- | --- | --- | --- | --- | --- | --- | --- | --- | --- | --- | --- | --- |
| Cn1c(=O)c2c(ncn2CC(O)CO)n(C)c1=O (stereo unspecified) [DYPHYLLINE] | Not Active | Not Active | Not Active | Not Active | Not Active | Not Active | Not Active | Not Active |  |  |  |  |  |  |  |  |  |
| O=C(O)c1cccnc1Nc1cccc(C(F)(F)F)c1 [NIFLUMIC ACID] | Not Active | Not Active | Not Active | Not Active | Not Active | Not Active | Not Active | Not Active |  |  |  |  |  |  |  |  |  |
| CC(C)c1cccc(C(C)C)c1O [PROPOFOL] | Not Active | Not Active | Not Active | Not Active | Not Active | Not Active | Not Active | Not Active |  |  |  |  |  |  |  |  |  |
| CC(=O)O[C@H]1C(=O)[C@@]2(C)[C@H]([C@H](OC(=O)c3ccccc3)[C@]3(O)C[C@H](OC(=O)[C@H](O)[C@@H](NC(=O)c4ccccc4)c4ccccc4)C(C)=C1C3(C)C)[C@]1(OC(C)=O)CO[C@@H]1C[C@@H]2O [PACLITAXEL] | Not Active | Not Active | Not Active | Not Active | Not Active | Not Active | Not Active | Not Active |  |  |  |  |  |  |  |  |  |
| CC(=O)Oc1ccc(C(c2ccc(OC(C)=O)cc2)c2ccccn2)cc1 [BISACODYL] | Not Active | Not Active | Not Active | Not Active | Not Active | Not Active | Not Active | Not Active |  |  |  |  |  |  |  |  |  |
| AURANOFIN | Not Active | Not Active | Not Active | Not Active |  | Not Active | Not Active | Not Active | Not Active | Not Active | Not Active | Not Active | Not Active | Not Active | Not Active |  |  |
| O=C/C=C/c1ccccc1 | Not Active | Not Active | Not Active | Not Active |  | Not Active | Not Active | Not Active |  |  |  |  |  |  |  |  |  |
| GRAMICIDIN | Not Active | Not Active | Not Active | Not Active |  | Not Active | Not Active | Not Active | Not Active | Not Active | Not Active | Not Active | Not Active | Not Active | Not Active |  |  |
| Cc1nnc2n1-c1ccc(Cl)cc1C(c1ccccc1)=NC2 [ALPRAZOLAM] | Not Active | Not Active | Not Active | Not Active |  | Not Active |  | Not Active |  |  |  |  |  | Not Active |  |  |  |
| GENTAMICIN | Not Active | Not Active | Not Active | Not Active |  | Not Active | Not Active | Not Active | Not Active | Not Active | Not Active | Not Active | Not Active | Not Active | Not Active |  |  |
| NYSTATIN | Not Active | Not Active | Not Active | Not Active |  | Not Active | Not Active | Not Active | Not Active | Not Active | Not Active | Not Active | Not Active | Not Active | Not Active |  |  |
| COc1cc(N)c(Cl)cc1C(=O)NC1CCN(CCCOc2ccc(F)cc2)CC1OC (stereo unspecified) [CISAPRIDE] | Not Active |  | Not Active | Not Active | Not Active | Not Active | Not Active | Not Active |  |  |  |  |  |  |  |  |  |
| CC1(C)S[C@@H]2[C@H](NC(=O)[C@H](N)c3ccccc3)C(=O)N2[C@H]1C(=O)O [AMPICILLIN] | Not Active | Not Active | Not Active | Not Active | Not Active | Not Active | Not Active |  |  |  |  |  |  |  |  |  |  |
| Cc1c(OCC(F)(F)F)ccnc1C[S+]([O-])c1nc2ccccc2[nH]1 (stereo unspecified) [LANSOPRAZOLE] | Not Active | Not Active | Not Active | Not Active | Not Active | Not Active | Not Active |  |  |  |  |  |  |  |  |  |  |
| GADOPENTETATE DIMEGLUMINE | Not Active | Not Active | Not Active | Not Active |  | Not Active | Not Active | Not Active | Not Active | Not Active | Not Active | Not Active | Not Active | Not Active | Not Active |  |  |
| C[n+]1ccc(-c2cc[n+](C)cc2)cc1.[Cl-].[Cl-] [PARAQUAT DICHLORIDE] | Not Active | Not Active | Not Active | Not Active |  | Not Active | Not Active | Not Active |  |  |  |  |  |  |  |  |  |
| Oc1c(Cl)cc(Cl)c(Cl)c1Cc1c(O)c(Cl)cc(Cl)c1Cl [HEXACHLOROPHENE] | Not Active | Not Active | Not Active | Not Active | Not Active | Not Active | Not Active |  |  |  |  |  |  |  |  |  |  |
| CCn1cc(C(=O)O)c(=O)c2cnc(N3CCCC3)nc21 [PIROMIDIC ACID] | Not Active | Not Active | Not Active | Not Active | Not Active | Not Active | Not Active |  |  |  |  |  |  |  |  |  |  |
| C[C@@H]1C[C@H]2[C@@H]3CCC4=CC(=O)C=C[C@]4(C)[C@@]3(F)[C@@H](O)C[C@]2(C)[C@H]1C(=O)CO [DESOXIMETASONE] | Not Active | Not Active | Not Active | Not Active | Not Active | Not Active | Not Active |  |  |  |  |  |  |  |  |  |  |
| CN(C)CC[C@@H](c1ccc(Cl)cc1)c1ccccn1 [DEXCHLORPHENIRAMINE] | Not Active | Not Active | Not Active |  | Not Active | Not Active | Not Active |  |  |  |  |  |  |  |  | 6.99 µM | 2.49 µM |
